Measurements published in ChEMBL document CHEMBL3885881, “DrugMatrix”.

Species: Rattus norvegicus
Experiment: DrugMatrix - Regimen: Daily Repeat
Assay type: toxicity, organism-based, Sprague-Dawley
Parameters: regimen Daily Repeat, gender Male, age 6-8 weeks
Settings: in vivo, po, route oral GAVAGE, […]; for ABSOLUTE BASOPHIL / ABSOLUTE EOSINOPHIL / ABSOLUTE LYMPHOCYTE / ABSOLUTE MONOCYTE / ABSOLUTE SEGMENTED NEUTROPHIL / BASOPHIL / EOSINOPHIL / ERYTHROCYTE COUNT / HEMATOCRIT / HEMOGLOBIN / LEUKOCYTE COUNT / LYMPHOCYTE / MEAN CORPUSCULAR HEMOGLOBIN / MEAN CORPUSCULAR HEMOGLOBIN CONCENTRATION / MEAN CORPUSCULAR VOLUME / MONOCYTE / NEUTROPHIL / NUCLEATED RED BLOOD CELLS / PLATELET COUNT: tissue Blood; for ALANINE AMINOTRANSFERASE / ALBUMIN / ALKALINE PHOSPHATASE / ASPARTATE AMINOTRANSFERASE / BLOOD UREA NITROGEN / CARBON DIOXIDE / CHLORIDE / CHOLESTEROL / CREATINE PHOSPHOKINASE / CREATININE / GLUCOSE / LACTATE DEHYDROGENASE / LIPASE / PHOSPHORUS / POTASSIUM / SODIUM / TOTAL BILIRUBIN / TOTAL PROTEIN / URIC ACID: tissue Plasma
[1] = 0 mg/kg, 72 h, dose level Control, time 3 day
[2] = 0 mg/kg, 120 h, dose level Control, time 5 day
[3] = 6 mg/kg, 72 h, dose level Low, time 3 day

CO[C@H]1O[C@@H]2O[C@@]3(C)CC[C@H]4[C@H](C)CC[C@@H]([C@H]1C)[C@@]24OO3
ABSOLUTE BASOPHIL [1]: 0 CELLS/uL
ABSOLUTE EOSINOPHIL [1]: 138.5 CELLS/uL
ABSOLUTE LYMPHOCYTE [1]: 13978.67 CELLS/uL
ABSOLUTE MONOCYTE [1]: 391 CELLS/uL
ABSOLUTE SEGMENTED NEUTROPHIL [1]: 1608.5 CELLS/uL
BASOPHIL [1]: 0%
EOSINOPHIL [1]: 1%
ERYTHROCYTE COUNT [1]: 5.8 x10E6/uL
HEMATOCRIT [1]: 36.22%
HEMOGLOBIN [1]: 13.65 G/DL
LEUKOCYTE COUNT [1]: 16.12 x10E3/uL
LYMPHOCYTE [1]: 86.67%
MEAN CORPUSCULAR HEMOGLOBIN [1]: 23.58 pg
MEAN CORPUSCULAR HEMOGLOBIN CONCENTRATION [1]: 37.72 G/DL
MEAN CORPUSCULAR VOLUME [1]: 62.52 fL
MONOCYTE [1]: 2.5%
NEUTROPHIL [1]: 9.83%
NUCLEATED RED BLOOD CELLS [1]: 0 /100WBC
PLATELET COUNT [1]: 1214.17 x10E3/uL
ALANINE AMINOTRANSFERASE [1]: 59.5 u/L
ALBUMIN [1]: 4.1 G/DL
ALKALINE PHOSPHATASE [1]: 393.83 u/L
ASPARTATE AMINOTRANSFERASE [1]: 87.83 u/L
BLOOD UREA NITROGEN [1]: 16.33 mg/dL
CARBON DIOXIDE [1]: 28.17 mmol/L
CHLORIDE [1]: 100.83 MEQ/L
CHOLESTEROL [1]: 73.33 mg/dL
CREATINE PHOSPHOKINASE [1]: 398 u/L
CREATININE [1]: 0.2 mg/dL
GLUCOSE [1]: 152.67 mg/dL
LACTATE DEHYDROGENASE [1]: 501.5 u/L
LIPASE [1]: 9.5 u/L
PHOSPHORUS [1]: 10.77 mg/dL
POTASSIUM [1]: 6.44 MEQ/L
SODIUM [1]: 143.4 MEQ/L
TOTAL BILIRUBIN [1]: 0.17 mg/dL
TOTAL PROTEIN [1]: 5.92 G/DL
URIC ACID [1]: 1.68 mg/dL
ABSOLUTE BASOPHIL [2]: 0 CELLS/uL
ABSOLUTE EOSINOPHIL [2]: 183.33 CELLS/uL
ABSOLUTE LYMPHOCYTE [2]: 14952.83 CELLS/uL
ABSOLUTE MONOCYTE [2]: 238.5 CELLS/uL
ABSOLUTE SEGMENTED NEUTROPHIL [2]: 1642 CELLS/uL
BASOPHIL [2]: 0%
EOSINOPHIL [2]: 1%
ERYTHROCYTE COUNT [2]: 5.89 x10E6/uL
HEMATOCRIT [2]: 36.13%
HEMOGLOBIN [2]: 13.37 G/DL
LEUKOCYTE COUNT [2]: 17.02 x10E3/uL
LYMPHOCYTE [2]: 87.17%
MEAN CORPUSCULAR HEMOGLOBIN [2]: 22.73 pg
MEAN CORPUSCULAR HEMOGLOBIN CONCENTRATION [2]: 37.02 G/DL
MEAN CORPUSCULAR VOLUME [2]: 61.45 fL
MONOCYTE [2]: 1.5%
NEUTROPHIL [2]: 10.33%
NUCLEATED RED BLOOD CELLS [2]: 0 /100WBC
PLATELET COUNT [2]: 1183.5 x10E3/uL
ALANINE AMINOTRANSFERASE [2]: 54.83 u/L
ALBUMIN [2]: 4.28 G/DL
ALKALINE PHOSPHATASE [2]: 363.17 u/L
ASPARTATE AMINOTRANSFERASE [2]: 96.83 u/L
BLOOD UREA NITROGEN [2]: 15.67 mg/dL
CARBON DIOXIDE [2]: 26.17 mmol/L
CHLORIDE [2]: 102.67 MEQ/L
CHOLESTEROL [2]: 63.67 mg/dL
CREATINE PHOSPHOKINASE [2]: 594.33 u/L
CREATININE [2]: 0.2 mg/dL
GLUCOSE [2]: 182.33 mg/dL
LACTATE DEHYDROGENASE [2]: 656.5 u/L
LIPASE [2]: 9.33 u/L
PHOSPHORUS [2]: 11.7 mg/dL
POTASSIUM [2]: 5.92 MEQ/L
SODIUM [2]: 142.62 MEQ/L
TOTAL BILIRUBIN [2]: 0.13 mg/dL
TOTAL PROTEIN [2]: 5.85 G/DL
URIC ACID [2]: 1.8 mg/dL
ABSOLUTE BASOPHIL [3]: 0 CELLS/uL
ABSOLUTE EOSINOPHIL [3]: 0 CELLS/uL
ABSOLUTE LYMPHOCYTE [3]: 14690 CELLS/uL
ABSOLUTE MONOCYTE [3]: 490.33 CELLS/uL
ABSOLUTE SEGMENTED NEUTROPHIL [3]: 1319.67 CELLS/uL
BASOPHIL [3]: 0%
EOSINOPHIL [3]: 0%
ERYTHROCYTE COUNT [3]: 5.7 x10E6/uL
HEMATOCRIT [3]: 36.23%
HEMOGLOBIN [3]: 13.63 G/DL
LEUKOCYTE COUNT [3]: 16.5 x10E3/uL
LYMPHOCYTE [3]: 88.67%
MEAN CORPUSCULAR HEMOGLOBIN [3]: 23.93 pg
MEAN CORPUSCULAR HEMOGLOBIN CONCENTRATION [3]: 37.67 G/DL
MEAN CORPUSCULAR VOLUME [3]: 63.6 fL
MONOCYTE [3]: 3%
NEUTROPHIL [3]: 8.33%
NUCLEATED RED BLOOD CELLS [3]: 0 /100WBC
PLATELET COUNT [3]: 1120 x10E3/uL
ALANINE AMINOTRANSFERASE [3]: 66.67 u/L
ALBUMIN [3]: 4.17 G/DL
ALKALINE PHOSPHATASE [3]: 405.67 u/L
ASPARTATE AMINOTRANSFERASE [3]: 88.33 u/L
BLOOD UREA NITROGEN [3]: 16.33 mg/dL
CARBON DIOXIDE [3]: 25.67 mmol/L
CHLORIDE [3]: 103 MEQ/L
CHOLESTEROL [3]: 70.33 mg/dL
CREATINE PHOSPHOKINASE [3]: 249.33 u/L
CREATININE [3]: 0.21 mg/dL
GLUCOSE [3]: 155.33 mg/dL
LACTATE DEHYDROGENASE [3]: 155 u/L
LIPASE [3]: 9.33 u/L
PHOSPHORUS [3]: 11.6 mg/dL
POTASSIUM [3]: 6.23 MEQ/L
SODIUM [3]: 145.23 MEQ/L
TOTAL BILIRUBIN [3]: 0.2 mg/dL
TOTAL PROTEIN [3]: 5.8 G/DL
URIC ACID [3]: 1.47 mg/dL
